Laboratory results taken from US5191079A, “Quinolinecarboxylic acid derivatives” (priority 1990, dated 1993).
Converted amounts (≈) assume the structure as drawn.

Assays:
[1] = tested on: Staphylococcus aureus IID 803; assay: Effect on treatment of general infectious disease (systemic infection in mice), Experiment 3; assay type: in vivo, Staphylococcus aureus; ddY male mice; conditions: Staphylococcus aureus, IID803, 168 h; oral, 1 h after i.p. infection, mice, survival after one week, average of several tests; read-out: 50% effective dose (ED50)
Procedure: Staphylococcus aureus IID 803
The test microorganism was subjected to standing culture in Brain heart infusion broth (manufactured by DIFCO) at 37° C. for 16 to 18 hours. The culture was then diluted with PBS (Dulbecco's phosphate buffered saline) to adjust the concentration of bacteria to 4×10^7 -8×10^7 CFU/ml. The mixture was mixed with an equivalent amount of 10% (w/v) Mucin (BACTO MUCIN BACTERIOLOGICAL, manufactured by Difco Co.) to prepare a bacterial suspension. The thus prepared bacterial suspension (0.5 ml each) was intraperitoneally inoculated to ddY male mice (5 weeks age, weighing 24-27 g, 5 mice in each group), to infect the animals, by which systemic infectious model was prepared.
The mice were daily observed for one week, and from the survival number of mice after one week, the 50% effective dose (ED50) was calculated by Weil method. This test was repeated several times and the average of ED50 was calculated.

[2] = tested on: clinically isolated Enterococcus faecalis; assay: In vitro antibacterial activity against clinical isolates, Experiment 2; assay type: cell-based
Procedure: (§1) The above solutions were then diluted with sterilized distilled water to prepare a standard solution with a concentration of the test compound: 1000 μg/ml each.
(§2) For the preculture of each microorganism, there was used as the medium a sensitivity test broth (manufactured by Nissui Seiyaku K. K., Japan), and for the measurement of MIC, there was used a sensitivity test agar medium (manufactured by Nissui Seiyaku K. K.).
(§3) The clinically isolates used above were isolated from Nov. 1988 to Jun. 1989 and were obtained from Research Section, Tokyo Clinical Research Center.

[3] = tested on: clinically isolated Staphylococcus aureus; assay: as above; assay type: cell-based
Procedure: as §1, §2, §3

[4] = tested on: clinically isolated Enterococcus faecium; assay: as above; assay type: cell-based
Procedure: as §1, §2, §3

[5] = tested on: clinically isolated Staphylococcus epidermidis; assay: as above; assay type: cell-based; conditions: Staphylococcus epidermidis
Procedure: as §1, §2, §3

[6] = tested on: Escherichia coli NIHJ JC-2; assay: MIC, Experiment 1; assay type: cell-based; conditions: NIHJJC2, E. coli NIHJ JC-2, Gram -, read-out: Min. inhib. concentr. (MIC)
Procedure: (§4) The compounds of the present invention (B, E, G, H, M, N, O, P and Q) were each dissolved in dimethylsulfoxide to prepare a solution of 5000 μg/ml in concentration. The compounds of the present invention (I, J and K) and the known compound (Y) were each dissolved in sterilized distilled water to prepare a solution of 5000 μg/ml in concentration. Each solution was diluted with sterilized distilled water to prepare a standard solution with a concentration of each test compound: 1000 μg/ml. The test was carried out by a method as appointed by Japan Society of Chemotherapy [cf. Chemotherapy, 29, 76-79 (1981), TOKYO].
(§5) As to Streptococcus pneumoniae and Streptococcus pyogenes, Brain heart infusion broth (manufactured by DIFCO) was used as the medium for the preculture thereof, and a heart infusion agar medium containing 5% defibrinated horse blood (manufactured by Nissui Seiyaku K. K., Japan) was used as the medium for the measurement of minimum inhibitory concentration (MIC). As to other microorganisms, a sensitivity test broth (manufactured by Nissui Seiyaku K. K.) was used as the medium for the preculture thereof, and a sensitivity test agar medium (manufactured by Nissui Seiyaku K. K.) was used as the medium for the measurement of MIC.

Enterobacter cloacae 963 = assay: MIC, Experiment 1; assay type: cell-based; conditions: E. cloacae 963, Gram -, read-out: Min. inhib. concentr. (MIC)
Procedure: as §4, §5

[7] = tested on: Klebsiella pneumoniae PCI-602; assay: MIC, Experiment 1; assay type: cell-based; conditions: PCI602, K. pneumoniae PCI-602, Gram -, read-out: Min. inhib. concentr. (MIC)
Procedure: as §4, §5

[8] = tested on: Proteus mirabilis IFO 3849; assay: MIC, Experiment 1; assay type: cell-based; conditions: IFO3849, P. mirabilis IFO 3849, Gram -, read-out: Min. inhib. concentr. (MIC)
Procedure: as §4, §5

[9] = tested on: Staphylococcus aureus ATCC 9144; assay: MIC, Experiment 1; assay type: cell-based; conditions: ATCC9144, S. aureus ATCC 9144, Gram +, read-out: Min. inhib. concentr. (MIC)
Procedure: as §4, §5

[10] = tested on: Micrococcus luteus ATCC 9341; assay: MIC, Experiment 1; assay type: cell-based; conditions: ATCC9341, M. luteus ATCC 9341, Gram +, read-out: Min. inhib. concentr. (MIC)
Procedure: as §4, §5

[11] = tested on: Staphylococcus aureus FDA 209P JC-1; assay: MIC, Experiment 1; assay type: cell-based; conditions: FDA209P, S. aureus FDA 209P JC-1, Gram +, read-out: Min. inhib. concentr. (MIC)
Procedure: as §4, §5

[12] = tested on: Acinetobacter calcoaceticus Ac 54; assay: MIC, Experiment 1; assay type: cell-based; conditions: AC54, A. calcoaceticus Ac 54, Gram -, read-out: Min. inhib. concentr. (MIC)
Procedure: as §4, §5

[13] = tested on: Bacillus subtilis ATCC 6633; assay: MIC, Experiment 1; assay type: cell-based; conditions: ATCC6633, B. subtilis ATCC 6633, Gram +, read-out: Min. inhib. concentr. (MIC)
Procedure: as §4, §5

[14] = tested on: Pseudomonas aeruginosa NCTC 10490; assay: MIC, Experiment 1; assay type: cell-based; conditions: NCTC10490, P. aeruginosa NCTC 10490, Gram -, read-out: Min. inhib. concentr. (MIC)
Procedure: as §4, §5

Bacillus cereus IAM 1029 = assay: MIC, Experiment 1; assay type: cell-based; conditions: IAM1029, B. cereus IAM 1029, Gram +, read-out: Min. inhib. concentr. (MIC)
Procedure: as §4, §5

[15] = tested on: Staphylococcus aureus Terajima (IID 670); assay: MIC, Experiment 1; assay type: cell-based; conditions: IID670, S. aureus Terajima (IID 670), Gram +, read-out: Min. inhib. concentr. (MIC)
Procedure: as §4, §5

[16] = tested on: Staphylococcus aureus FDA 243; assay: MIC, Experiment 1; assay type: cell-based; conditions: FDA243, S. aureus FDA 243, Gram +, read-out: Min. inhib. concentr. (MIC)
Procedure: as §4, §5

[17] = tested on: Staphylococcus aureus IID 803; assay: MIC, Experiment 1; assay type: cell-based; conditions: IID803, S. aureus IID 803, Gram +, read-out: Min. inhib. concentr. (MIC)
Procedure: as §4, §5

[18] = tested on: Staphylococcus aureus Cowan I (IID 975); assay: MIC, Experiment 1; assay type: cell-based; conditions: IID975, S. aureus Cowan I (IID 975), Gram +, read-out: Min. inhib. concentr. (MIC)
Procedure: as §4, §5

Compound: CC1COc2c(N3CCN(C)CC3)c(F)cc3c(=O)c(C(=O)O)cn1c23 (stereo not drawn) [Compound (X), 9-Fluoro-3-methyl-10-(4-methyl-1-piperazinyl)-7-oxo-2,3-dihydro-7H-pyrido[1,2,3-de][1,4]benzoxazine-6-carboxylic acid, reference compound]
- ED50 [1]: 11.4 mg/kg
- MIC50 [2]: 3.13 µg/mL (≈ 8.66 µM)
- MIC ([2]; 25 clinical strains E. faecalis): 1.56 to 100 µg/mL (≈ 4.32 to 277 µM)
- MIC90 ([2]; 25 clinical strains E. faecalis, 90% of strains, read-out: MIC90): 50 µg/mL (≈ 138 µM)
- MIC50 [3]: 1.56 µg/mL (≈ 4.32 µM)
- MIC90 [3]: 25 µg/mL (≈ 69.2 µM)
- MIC ([3]; 25 clinical strains S. aureus incl. 16 methicillin resistant): 0.39 to 50 µg/mL (≈ 1.08 to 138 µM)
- MIC90 [4]: 100 µg/mL (≈ 277 µM)
- MIC50 ([4]; 25 clinical strains E. faecium, 50% of strains, read-out: MIC50): 25 µg/mL (≈ 69.2 µM)
- MIC90 [5]: 25 µg/mL (≈ 69.2 µM)
- MIC ([5]; 25 clinical strains S. epidermidis): 0.2 to 50 µg/mL (≈ 0.553 to 138 µM)
- MIC50 ([5]; 25 clinical strains S. epidermidis, 50% of strains, read-out: MIC50): 0.78 µg/mL (≈ 2.16 µM)
- MIC [6]: 0.1 µg/mL (≈ 0.277 µM)
- MIC (Enterobacter cloacae 963): 0.2 µg/mL (≈ 0.553 µM)
- MIC [7]: 0.05 µg/mL (≈ 0.138 µM)
- MIC [8]: 0.39 µg/mL (≈ 1.08 µM)
- MIC [9]: 0.39 µg/mL (≈ 1.08 µM)
- MIC [10]: 3.13 µg/mL (≈ 8.66 µM)
- MIC [11]: 0.39 µg/mL (≈ 1.08 µM)
- MIC [12]: 0.39 µg/mL (≈ 1.08 µM)
- MIC [13]: 0.1 µg/mL (≈ 0.277 µM)
- MIC [14]: 1.56 µg/mL (≈ 4.32 µM)
- MIC (Bacillus cereus IAM 1029): 0.39 µg/mL (≈ 1.08 µM)
- MIC [15]: 0.39 µg/mL (≈ 1.08 µM)
- MIC [16]: 0.39 µg/mL (≈ 1.08 µM)
- MIC [17]: 0.39 µg/mL (≈ 1.08 µM)
- MIC [18]: 0.39 µg/mL (≈ 1.08 µM)
